# Assay results: PMC8010095, “Discovery of novel antituberculosis agents among 3-phenyl-5-(1-phenyl-1H-[1,2,3]triazol-4-yl)-[1,2,4]oxadiazole derivatives targeting aminoacyl-tRNA synthetases” (Scientific Reports, 2021)
# Legend:
# [1] = tested on: rifampin-resistant strain H37Rv (rpoB^S450L) (ATCC #35,838); type: cell-based, Mycobacterium tuberculosis
# [2] = tested on: isoniazid-resistant H37Rv (katG^del) (MS015); assay: microbe, parasite or virus in culture; type: cell-based; conditions: > 80% reduction in growth, screened at 20, 2 and 0.2 mg/L, 7H9 complete medium; for MIC: Mycobacterium tuberculosis, H37RV, read-out: Growth inhibition cutoff, H37Rv (katG^del)
# [3] = tested on: moxifloxacin-resistant strain H37Rv (gyrA^D94K) (MOX3); type: cell-based, Mycobacterium tuberculosis
# [4] = tested on: M. tuberculosis mono-resistant strains; assay: microbe, parasite or virus in culture; type: cell-based
SMILES,"Growth inhibition cutoff, H37Rv (rpoB^S450L) [1] [mg/L]","Growth inhibition cutoff, H37Rv (katG^del) [2] [mg/L]","Growth inhibition cutoff, H37Rv (gyrA^D94K) [3] [mg/L]",MIC [2] [µg/mL],growth inhibition cutoff [4] [µM],"MIC ([4]; Mycobacterium tuberculosis, read-out: growth inhibition cutoff) [µM]"
Nc1c(-c2nc(-c3ccccc3)no2)nnn1-c1ccccc1F [Compound 1],> 20,> 20,> 20,–,–,–
Nc1c(-c2nc(-c3ccccc3)no2)nnn1-c1ccc(C(F)(F)F)c(Cl)c1 [Compound 2],> 20,–,> 20,> 20,–,–
Cc1c(-c2nc(-c3ccccc3F)no2)nnn1-c1ccc(F)c(Cl)c1 [Compound 4],> 20,> 20,> 20,–,–,–
Cc1c(-c2nc(-c3ccccc3F)no2)nnn1-c1ccc(Br)cc1 [Compound 5],2 to 20,> 20,2 to 20,–,–,–
Cc1c(-c2nc(-c3ccccc3F)no2)nnn1-c1cc(F)ccc1F [Compound 6],> 20,> 20,> 20,–,–,–
Cc1c(-c2nc(-c3ccccc3Cl)no2)nnn1-c1cccc(F)c1 [Compound 7],> 20,> 20,> 20,–,–,–
Cc1ccccc1-c1noc(-c2nnn(-c3ccc(Br)cc3)c2C)n1 [Compound 8],> 20,> 20,> 20,–,–,–
Nc1c(-c2nc(-c3ccc(F)cc3)no2)nnn1-c1ccccc1 [Compound 9],> 20,> 20,> 20,–,–,–
Nc1c(-c2nc(-c3ccc(F)cc3)no2)nnn1-c1ccc(Cl)cc1 [Compound 10],> 20,> 20,> 20,–,–,–
Nc1c(-c2nc(-c3ccc(F)cc3)no2)nnn1-c1ccc(Br)cc1 [Compound 11],> 20,> 20,> 20,–,–,–
Nc1c(-c2nc(-c3ccc(F)cc3)no2)nnn1-c1ccc(F)cc1 [Compound 12],> 20,> 20,> 20,–,–,–
COc1ccc(-n2nnc(-c3nc(-c4ccc(F)cc4)no3)c2N)cc1 [Compound 13],> 20,–,> 20,> 20,–,–
CCc1ccc(-n2nnc(-c3nc(-c4ccc(F)cc4)no3)c2N)cc1 [Compound 14],> 20,> 20,> 20,–,–,–
Nc1c(-c2nc(-c3ccc(F)cc3)no2)nnn1-c1cccc(F)c1 [Compound 15],> 20,> 20,> 20,–,–,–
Nc1c(-c2nc(-c3ccc(F)cc3)no2)nnn1-c1cccc(Cl)c1 [Compound 16],> 20,> 20,> 20,–,–,–
"COc1ccc(-n2nnc(-c3nc(-c4ccc(F)cc4)no3)c2N)cc1Cl [Compound 17, 3-(3-chloro-4-methoxy-phenyl)-5-[3-(4-fluoro-phenyl)-[1,2,4]oxadiazol-5-yl]-3H-[1,2,3]triazol-4-ylamine]",> 20,> 20,> 20,–,–,–
Cc1cccc(-n2nnc(-c3nc(-c4ccc(F)cc4)no3)c2N)c1 [Compound 18],> 20,> 20,> 20,–,–,–
Nc1c(-c2nc(-c3ccc(F)cc3)no2)nnn1-c1cccc(C(F)(F)F)c1 [Compound 19],> 20,> 20,> 20,–,–,–
COc1cccc(-n2nnc(-c3nc(-c4ccc(F)cc4)no3)c2N)c1 [Compound 20],2 to 20,> 20,2 to 20,–,5.7 to 57,–

SMILES,"Growth inhibition cutoff, H37Rv (rpoB^S450L) [1] [mg/L]","Growth inhibition cutoff, H37Rv (katG^del) [2] [mg/L]","Growth inhibition cutoff, H37Rv (gyrA^D94K) [3] [mg/L]",MIC [2] [µg/mL],growth inhibition cutoff [4] [µM],"MIC ([4]; Mycobacterium tuberculosis, read-out: growth inhibition cutoff) [µM]"
COc1ccc(-n2nnc(-c3nc(-c4ccc(F)cc4)no3)c2N)cc1OC [Compound 21],> 20,> 20,> 20,–,–,–
Nc1c(-c2nc(-c3ccc(F)cc3)no2)nnn1-c1ccc(F)cc1F [Compound 22],> 20,> 20,> 20,–,–,–
Nc1c(-c2nc(-c3ccc(F)cc3)no2)nnn1-c1ccccc1F [Compound 23],> 20,> 20,> 20,–,–,–
COc1ccccc1-n1nnc(-c2nc(-c3ccc(F)cc3)no2)c1N [Compound 26],> 20,> 20,> 20,–,–,–
COc1ccc(Cl)cc1-n1nnc(-c2nc(-c3ccc(F)cc3)no2)c1N [Compound 27],2 to 20,–,> 20,> 20,–,5.17 to 51.7
COc1ccc(C)cc1-n1nnc(-c2nc(-c3ccc(F)cc3)no2)c1N [Compound 28],> 20,> 20,> 20,–,–,–
COc1ccc(OC)c(-n2nnc(-c3nc(-c4ccc(F)cc4)no3)c2N)c1 [Compound 29],> 20,> 20,> 20,–,–,–
CCOc1ccccc1-n1nnc(-c2nc(-c3ccc(F)cc3)no2)c1N [Compound 30],> 20,> 20,> 20,–,–,–
Nc1c(-c2nc(-c3ccc(Cl)cc3)no2)nnn1-c1ccc(Br)cc1F [Compound 31],> 20,> 20,> 20,–,–,–
Nc1c(-c2nc(-c3ccc(Br)cc3)no2)nnn1-c1ccc(F)cc1 [Compound 32],> 20,> 20,> 20,–,–,–
Nc1c(-c2nc(-c3ccc(Br)cc3)no2)nnn1-c1cccc(F)c1 [Compound 33],> 20,> 20,> 20,–,–,–
COc1ccccc1-n1nnc(-c2nc(-c3ccc(Br)cc3)no2)c1N [Compound 35],> 20,> 20,> 20,–,–,–
CCOc1ccccc1-n1nnc(-c2nc(-c3ccc(Br)cc3)no2)c1N [Compound 36],> 20,> 20,> 20,–,–,–
COc1ccc(-c2noc(-c3nnn(-c4cc(Cl)ccc4OC)c3N)n2)cc1 [Compound 37],> 20,> 20,> 20,–,–,–
COc1ccc(-c2noc(-c3nnn(-c4ccc(Cl)cc4)c3C)n2)cc1OC [Compound 38],> 20,> 20,> 20,–,–,–
CCOc1ccc(-c2noc(-c3nnn(-c4ccccc4F)c3N)n2)cc1 [Compound 39],> 20,> 20,> 20,–,–,–
CCOc1ccc(-c2noc(-c3nnn(-c4ccccc4Cl)c3N)n2)cc1 [Compound 40],> 20,> 20,2 to 20,–,5.22 to 52.2,–
CCOc1ccc(-c2noc(-c3nnn(-c4ccc(F)c(Cl)c4)c3N)n2)cc1 [Compound 41],> 20,> 20,> 20,–,–,–
